Measured values reported in PubChem BioAssay AID1259407 (Chemical Carcinogenesis Research Information System (CCRIS), 2018).
Active and inactive are the calls of the source. The rule behind the calls is not given here.

System: CCRIS mutagenicity, Ames/micronucleus/aberration tests
Assay: CCRIS mutagenicity studies
Conditions: Test System: AMES SALMONELLA TYPHIMURIUM

Measured: mutagenic call

CCNc1nc(Cl)nc(NC(C)C)n1
inactive: Strain/Indicator: TA97, Metabolic Activation: HAMSTER, LIVER, S-9, AROCLOR 1254 (10%), Method: PREINCUBATION inactive; negative | Strain/Indicator: TA97, Metabolic Activation: HAMSTER, LIVER, S-9, AROCLOR 1254 (30%), Method: PREINCUBATION inactive; negative | Strain/Indicator: TA97, Metabolic Activation: NONE, Method: PREINCUBATION inactive; negative | Strain/Indicator: TA97, Metabolic Activation: NONE, Method: STANDARD PLATE inactive; negative | Strain/Indicator: TA97, Metabolic Activation: RAT, LIVER, S-9, AROCLOR 1254 (10%), Method: PREINCUBATION inactive; negative | Strain/Indicator: TA97, Metabolic Activation: RAT, LIVER, S-9, AROCLOR 1254 (30%), Method: PREINCUBATION inactive; negative | Strain/Indicator: TA97, Metabolic Activation: RAT, LIVER, S-9, AROCLOR 1254, Method: STANDARD PLATE inactive; negative | Strain/Indicator: TA97A, Metabolic Activation: NONE, Method: STANDARD PLATE inactive; negative | Strain/Indicator: TA97A, Metabolic Activation: RAT, LIVER, S-9, AROCLOR 1254, Method: STANDARD PLATE inactive; negative | Strain/Indicator: TA98, Metabolic Activation: HAMSTER, LIVER, S-9, AROCLOR 1254 (10%), Method: PREINCUBATION inactive; negative | Strain/Indicator: TA98, Metabolic Activation: HAMSTER, LIVER, S-9, AROCLOR 1254 (30%), Method: PREINCUBATION inactive; negative | Strain/Indicator: TA98, Metabolic Activation: NONE inactive; negative | Strain/Indicator: TA98, Metabolic Activation: NONE, Method: PREINCUBATION inactive; negative | Strain/Indicator: TA98, Metabolic Activation: PIG, LIVER, S-9, SODIUM PHENOBARBITAL AND BETA-NAPHTHOFLAVONE, Method: STANDARD PLATE inactive; negative | Strain/Indicator: TA98, Metabolic Activation: RAT, LIVER, S-9, AROCLOR 1254 inactive; negative | Strain/Indicator: TA98, Metabolic Activation: RAT, LIVER, S-9, AROCLOR 1254 (10%), Method: PREINCUBATION inactive; negative | Strain/Indicator: TA98, Metabolic Activation: RAT, LIVER, S-9, AROCLOR 1254 (30%), Method: PREINCUBATION inactive; negative | Strain/Indicator: TA98, Metabolic Activation: RAT, LIVER, S-9, AROCLOR 1254, Method: STANDARD PLATE inactive; negative | Strain/Indicator: TA98, Metabolic Activation: S-9, Method: STANDARD PLATE inactive; negative | Strain/Indicator: TA100, Metabolic Activation: HAMSTER, LIVER, S-9, AROCLOR 1254 (10%), Method: PREINCUBATION inactive; negative | Strain/Indicator: TA100, Metabolic Activation: HAMSTER, LIVER, S-9, AROCLOR 1254 (30%), Method: PREINCUBATION inactive; negative | Strain/Indicator: TA100, Metabolic Activation: NONE inactive; negative | Strain/Indicator: TA100, Metabolic Activation: NONE, Method: PREINCUBATION inactive; negative | Strain/Indicator: TA100, Metabolic Activation: PIG, LIVER, S-9, SODIUM PHENOBARBITAL AND BETA-NAPHTHOFLAVONE, Method: STANDARD PLATE inactive; negative | Strain/Indicator: TA100, Metabolic Activation: RAT, LIVER, S-9, AROCLOR 1254 inactive; negative | Strain/Indicator: TA100, Metabolic Activation: RAT, LIVER, S-9, AROCLOR 1254 (10%), Method: PREINCUBATION inactive; negative | Strain/Indicator: TA100, Metabolic Activation: RAT, LIVER, S-9, AROCLOR 1254 (30%), Method: PREINCUBATION inactive; negative | Strain/Indicator: TA100, Metabolic Activation: RAT, LIVER, S-9, AROCLOR 1254, Method: STANDARD PLATE inactive; negative | Strain/Indicator: TA100, Metabolic Activation: S-9, Method: STANDARD PLATE inactive; negative | Strain/Indicator: TA102, Metabolic Activation: NONE inactive; negative | Strain/Indicator: TA102, Metabolic Activation: NONE, Method: STANDARD PLATE inactive; negative | Strain/Indicator: TA102, Metabolic Activation: RAT, LIVER, S-9, AROCLOR 1254 inactive; negative | Strain/Indicator: TA102, Metabolic Activation: RAT, LIVER, S-9, AROCLOR 1254, Method: STANDARD PLATE inactive; negative | Strain/Indicator: TA1535, Metabolic Activation: HAMSTER, LIVER, S-9, AROCLOR 1254 (10%), Method: PREINCUBATION inactive; negative | Strain/Indicator: TA1535, Metabolic Activation: HAMSTER, LIVER, S-9, AROCLOR 1254 (30%), Method: PREINCUBATION inactive; negative | Strain/Indicator: TA1535, Metabolic Activation: NONE inactive; negative | Strain/Indicator: TA1535, Metabolic Activation: NONE, Method: PREINCUBATION inactive; negative | Strain/Indicator: TA1535, Metabolic Activation: NONE, Method: STANDARD PLATE inactive; negative | Strain/Indicator: TA1535, Metabolic Activation: RAT, LIVER, S-9, AROCLOR 1254 inactive; negative | Strain/Indicator: TA1535, Metabolic Activation: RAT, LIVER, S-9, AROCLOR 1254 (10%), Method: PREINCUBATION inactive; negative | Strain/Indicator: TA1535, Metabolic Activation: RAT, LIVER, S-9, AROCLOR 1254 (30%), Method: PREINCUBATION inactive; negative | Strain/Indicator: TA1535, Metabolic Activation: RAT, LIVER, S-9, AROCLOR 1254, Method: STANDARD PLATE inactive; negative | Strain/Indicator: TA1537, Metabolic Activation: HAMSTER, LIVER, S-9, AROCLOR 1254 (10%), Method: PREINCUBATION inactive; negative | Strain/Indicator: TA1537, Metabolic Activation: HAMSTER, LIVER, S-9, AROCLOR 1254 (30%), Method: PREINCUBATION inactive; negative | Strain/Indicator: TA1537, Metabolic Activation: NONE inactive; negative | Strain/Indicator: TA1537, Metabolic Activation: NONE, Method: PREINCUBATION inactive; negative | Strain/Indicator: TA1537, Metabolic Activation: NONE, Method: STANDARD PLATE inactive; negative | Strain/Indicator: TA1537, Metabolic Activation: RAT, LIVER, S-9, AROCLOR 1254 inactive; negative | Strain/Indicator: TA1537, Metabolic Activation: RAT, LIVER, S-9, AROCLOR 1254 (10%), Method: PREINCUBATION inactive; negative | Strain/Indicator: TA1537, Metabolic Activation: RAT, LIVER, S-9, AROCLOR 1254 (30%), Method: PREINCUBATION inactive; negative | Strain/Indicator: TA1537, Metabolic Activation: RAT, LIVER, S-9, AROCLOR 1254, Method: STANDARD PLATE inactive; negative | Strain/Indicator: TA1538, Metabolic Activation: NONE, Method: STANDARD PLATE inactive; negative | Strain/Indicator: TA1538, Metabolic Activation: RAT, LIVER, S-9, AROCLOR 1254, Method: STANDARD PLATE inactive; negative
